Measured values reported in patent US12599672B2, “KRAS proteolysis targeting chimeras” (PAQ Therapeutics Inc., priority 2023, dated 2026).

Columns and labels:
Type in all cases: cell-based
[1] = molecular target: T1, KRAS G12D (Homo sapiens, UniProt P01116, G12D); test: KRAS G12D HiBit assay; settings: AsPc-1-KRAS (G12D)-HiBit-KI cell, compound treatment for 24 hours, absolute DC50; class symbols
T1 construct: AsPc-1-KRAS (G12D)-HiBit-KI cell (Pharmaron); host or cells: AsPc-1-KRAS (G12D)-HiBit-KI cells (HiBiT knock-in at the endogenous KRAS locus)
T1 sequence (P01116 1-188 isoform P01116-2 G12D): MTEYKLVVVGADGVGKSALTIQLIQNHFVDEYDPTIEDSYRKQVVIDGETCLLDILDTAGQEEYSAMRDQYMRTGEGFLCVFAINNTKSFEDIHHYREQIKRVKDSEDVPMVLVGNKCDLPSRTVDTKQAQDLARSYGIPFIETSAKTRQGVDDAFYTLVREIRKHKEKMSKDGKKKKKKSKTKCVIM
How it was run: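 Cells were treated for 24 h with compounds in a 3-fold, 10-point dilution series from a 0.3 mM DMSO stock, then equilibrated 15 min at room temperature. KRAS G12D HiBiT levels were read by luminescence after lytic Nano-Glo HiBiT reagent with LgBiT; inhibition calculated relative to 0.1% DMSO high control.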

[2] = molecular target: T2, KRAS G12V (Homo sapiens, UniProt P01116, G12V); test: KRAS G12V HiBit assay; settings: SW620-KRAS (G12V)-HiBit-KI cells, compound treatment for 24 hours, class symbols
T2 construct: SW620-KRAS (G12V)-HiBit-KI cell (Pharmaron); host or cells: SW620-KRAS (G12V)-HiBit-KI cells (HiBiT knock-in at the endogenous KRAS locus)
T2 sequence (P01116 1-188 isoform P01116-2 G12V): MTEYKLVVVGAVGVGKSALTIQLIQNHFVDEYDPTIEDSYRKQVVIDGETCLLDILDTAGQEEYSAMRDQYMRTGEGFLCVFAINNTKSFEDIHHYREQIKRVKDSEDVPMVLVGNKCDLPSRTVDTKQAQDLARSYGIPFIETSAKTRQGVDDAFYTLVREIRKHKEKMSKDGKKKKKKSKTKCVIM
How it was run: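 HiBiT-tagged KRAS G12V cells treated 24 h with compound in a 3-fold, 10-point series (0.3 mM DMSO stock); lytic HiBiT reagent with LgBiT added after 15 min room-temperature equilibration. Degradation calculated against 0.1% DMSO high control.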

[3] = molecular target: T3, KRAS (Homo sapiens, UniProt P01116); test: KRASamp MSD assay; settings: KE39 (KRAS amplified) cells, treated with test compounds for 24 hr, MSD readout of KRAS degradation
T3 construct: endogenous in cells; host or cells: KE39 (KRAS amplified) cells
T3 sequence (P01116 1-188 isoform P01116-2): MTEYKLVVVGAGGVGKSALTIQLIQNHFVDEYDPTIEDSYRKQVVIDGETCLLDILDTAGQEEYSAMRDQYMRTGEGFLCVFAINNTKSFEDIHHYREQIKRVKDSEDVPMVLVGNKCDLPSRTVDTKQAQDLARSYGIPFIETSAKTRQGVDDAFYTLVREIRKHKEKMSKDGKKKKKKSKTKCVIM
How it was run: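 KRAS-amplified KE39 cells treated with compound for 24 hr, then lysed in RIPA buffer with protease/phosphatase inhibitors. KRAS protein measured by MSD sandwich immunoassay against a recombinant WT KRAS standard curve; DC50 derived from curve fitting of degradation.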

DC50 [1] | DC50 [2] | DC50 [3] | SMILES
< 100 nM | 10 to 100 nM | ≥ 10 nM | CCc1c(F)ccc2cc(O)cc(-c3ncc4c(N5CCC[C@@](C)(O)C5)nc(OC[C@@]56CCCN5[C@H](CNC(=O)c5ccc(CN7CCC(c8ccc9c(c8)n(C)c(=O)n9C8CCC(=O)NC8=O)CC7)cc5)CC6)nc4c3F)c12 (stereo partly drawn) [Compound 484, 4-((4-(1-(2,6-dioxopiperidin-3-yl)-3-methyl-2-oxo-2,3-dihydro-1H-benzo[d]imidazol-5-yl)piperidin-1-yl)methyl)-N-(((3S,7aS)-7a-(((7-(8-ethyl-7-fluoro-3-hydroxynaphthalen-1-yl)-8-fluoro-4-((R)-3-hydroxy-3-methylpiperidin-1-yl)pyrido[4,3-d]pyrimidin-2-yl)oxy)methyl)hexahydro-1H-pyrrolizin-3-yl)methyl)benzamide]
< 100 nM | < 10 nM | < 1 nM | CCc1c(F)ccc2cc(O)cc(-c3ncc4c(N5CCCOCC5)nc(OC[C@@]56CCCN5[C@H](COC(=O)N5CCC7(CC5)CC(N5CCC(c8ccc9c(c8)n(C)c(=O)n9C8CCC(=O)NC8=O)CC5)C7)CC6)nc4c3F)c12 (stereo partly drawn) [Compound 489, ((3S,7aS)-7a-(((7-(8-ethyl-7-fluoro-3-hydroxynaphthalen-1-yl)-8-fluoro-4-(1,4-oxazepan-4-yl)pyrido[4,3-d]pyrimidin-2-yl)oxy)methyl)hexahydro-1H-pyrrolizin-3-yl)methyl 2-(4-(1-(2,6-dioxopiperidin-3-yl)-3-methyl-2-oxo-2,3-dihydro-1H-benzo[d]imidazol-5-yl)piperidin-1-yl)-7-azaspiro[3.5]nonane-7-carboxylate]
< 100 nM | < 10 nM | < 1 nM | CCc1c(F)ccc2cc(O)cc(-c3ncc4c(N5CCC[C@@](C)(O)C5)nc(OC[C@@]56CCCN5[C@H](COC(=O)N5CCC(C#CC7CCN(c8ccc9c(c8)n(C)c(=O)n9C8CCC(=O)NC8=O)CC7)CC5)CC6)nc4c3F)c12 (stereo partly drawn) [Compound 500, [(3S,7aS)-7a-({[7-(8-ethyl-7-fluoro-3-hydroxynaphthalen-1-yl)-8-fluoro-4-[(3R)-3-hydroxy-3-methylpiperidin-1-yl]pyrido[4,3-d]pyrimidin-2-yl]oxy}methyl)-hexahydropyrrolizin-3-yl]methyl 4-(2-{1-[1-(2,6-dioxopiperidin-3-yl)-3-methyl-2-oxo-1,3-benzodiazol-5-yl]piperidin-4-yl}ethynyl) piperidine-1-carboxylate]
